Test results published in US7507730B2, “Substituted pyrazolo[1,5-a]pyrimidines as potassium channel activators” (Bristol-Myers Squibb Company, priority 2005, dated 2009).
pIC50: −log10 of the molar value.

Molecular target: Kv1.5 (Homo sapiens, UniProt P22460)
Experiment: Kv1.5 inhibition assay (IKur inhibitor assay per cited references)
Format: cell-based
Details: for pIC50: read-out: Kv1.5 IC50; for Kv1.5% inhibition / inhibition at 0.3 µM: at 0.3 μM
From the text: Assays to determine the degree of activity of a compound as an IKur inhibitor are well known in the art and are described in references such as J. Gen. Physiol. Apr.; 101 (4):513-43, and Br. J. Pharmacol. 1995 May; 115(2):267-74.

Kv1.5, sequence (P22460 whole entry): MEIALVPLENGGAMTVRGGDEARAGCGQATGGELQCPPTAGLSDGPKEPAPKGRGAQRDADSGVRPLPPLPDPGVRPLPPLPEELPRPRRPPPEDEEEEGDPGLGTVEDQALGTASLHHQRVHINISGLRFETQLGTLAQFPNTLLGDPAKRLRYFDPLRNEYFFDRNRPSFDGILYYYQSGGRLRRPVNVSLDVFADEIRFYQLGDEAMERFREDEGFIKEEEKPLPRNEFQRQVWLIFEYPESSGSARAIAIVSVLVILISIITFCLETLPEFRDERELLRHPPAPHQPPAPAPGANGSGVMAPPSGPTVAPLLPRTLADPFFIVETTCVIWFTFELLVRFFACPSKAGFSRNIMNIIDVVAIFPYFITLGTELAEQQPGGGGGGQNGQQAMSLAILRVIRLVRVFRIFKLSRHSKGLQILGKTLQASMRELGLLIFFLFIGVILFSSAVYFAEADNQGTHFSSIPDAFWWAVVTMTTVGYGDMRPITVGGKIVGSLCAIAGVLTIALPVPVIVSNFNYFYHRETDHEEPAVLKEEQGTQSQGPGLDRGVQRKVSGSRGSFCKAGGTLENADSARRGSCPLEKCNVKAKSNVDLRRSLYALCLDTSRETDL

Compound	Kv1.5% inhibition	inhibition at 0.3 µM	further results
CC1=C(S(=O)(=O)c2ccccc2)C(c2ccc(Cl)c(Cl)c2)n2nc(C)cc2N1 (single isomer, unassigned) [Example 3 Isomer 2, 7-(3,4-Dichlorophenyl)-2,5-dimethyl-6-(phenylsulfonyl)-4,7-dihydropyrazolo[1,5-a]pyrimidine]	–	–	pIC50: 6.53
COc1ccc(S(=O)(=O)C2=C(C)Nc3cc(C)nn3C2c2nc3ccccc3n2C)cc1 (single isomer, unassigned) [Example 23 Isomer 1, 6-(4-Methoxyphenylsulfonyl)-2,5-dimethyl-7-(1-methyl-1H-benzo[d]imidazol-2-yl)-4,7-dihydropyrazolo[1,5-a]pyrimidine]	6.5%	–	–
CC1=C(S(=O)(=O)NC2CCCCC2)C(c2ccc(Cl)c(Cl)c2)n2nc(C)cc2N1 (single isomer, unassigned) [Example 38 Isomer 2, N-Cyclohexyl-7-(3,4-dichlorophenyl)-2,5-dimethyl-4,7-dihydropyrazolo[1,5-a]pyrimidine-6-sulfonamide]	–	27.6%	–
CC1=C(S(=O)(=O)C2CCCCC2)C(c2ccc(Cl)cc2)n2nc(C(F)(F)F)cc2N1 (single isomer, unassigned) [Example 29 Isomer 2, 7-(4-Chlorophenyl)-6-(cyclohexylsulfonyl)-5-methyl-2-(trifluoromethyl)-4,7-dihydropyrazolo[1,5-a]pyrimidine]	–	87.9%	–
CC1=C(S(=O)(=O)C2CCCCC2)C(c2ccc(Cl)cc2)n2nc(C(F)(F)F)cc2N1 (single isomer, unassigned) [Example 29 Isomer 1, 7-(4-Chlorophenyl)-6-(cyclohexylsulfonyl)-5-methyl-2-(trifluoromethyl)-4,7-dihydropyrazolo[1,5-a]pyrimidine]	–	–	pIC50: 6.69
COc1cccc(S(=O)(=O)C2=C(C)Nc3cc(C(F)(F)F)nn3C2c2ccc(Cl)cc2)c1 (single isomer, unassigned) [Example 40 Isomer 2, 7-(4-Chlorophenyl)-6-(3-methoxyphenylsulfonyl)-5-methyl-2-(trifluoromethyl)-4,7-dihydropyrazolo[1,5-a]pyrimidine]	74.4%	–	–
CC1=C(S(=O)(=O)C(C)C)C(c2ccc(Cl)c(Cl)c2)n2nc(C)cc2N1 (racemic) [Example 13, 7-(3,4-Dichlorophenyl)-6-(isopropylsulfonyl)-2,5-dimethyl-4,7-dihydropyrazolo[1,5-a]pyrimidine]	–	15.4%	–
CC1=C(S(=O)(=O)c2ccccn2)C(c2ccc(Cl)c(Cl)c2)n2nc(C)cc2N1 (single isomer, unassigned) [Example 11 Isomer 2, 7-(3,4-Dichlorophenyl)-2,5-dimethyl-6-(pyridin-2-ylsulfonyl)-4,7-dihydropyrazolo[1,5-a]pyrimidine]	21.5%	–	–
COc1ccc(S(=O)(=O)C2=C(C)Nc3cc(C)nn3C2c2cccc(Cl)c2)cc1 (single isomer, unassigned) [Example 17 Isomer 1, 7-(3-Chlorophenyl)-6-(4-methoxyphenylsulfonyl)-2,5-dimethyl-4,7-dihydropyrazolo[1,5-a]pyrimidine]	–	–	pIC50: 6.59
CC1=C(S(=O)(=O)c2ccccc2)C(c2ccc(Cl)c(F)c2)n2nc(C(F)(F)F)cc2N1 (single isomer, unassigned) [Example 33 Isomer 2, 7-(4-Chloro-3-fluorophenyl)-5-methyl-6-(phenylsulfonyl)-2-(trifluoromethyl)-4,7-dihydropyrazolo[1,5-a]pyrimidine]	76.5%	–	–
CC1=C(C(=O)N(C)S(=O)(=O)C2CC2)C(c2ccc(Cl)c(Cl)c2)n2nc(C(F)(F)F)cc2N1 (single isomer, unassigned) [Example 98 Isomer 2, N-(Cyclopropylsulfonyl)-7-(3,4-dichlorophenyl)-N,5-dimethyl-2-(trifluoromethyl)-4,7-dihydropyrazolo[1,5-a]pyrimidine-6-carboxamide]	–	–	pIC50: 6.70
CC1=C(S(=O)(=O)c2ccccn2)C(c2ccc(Cl)cc2)n2nc(C(F)(F)F)cc2N1 (single isomer, unassigned) [Example 47 Isomer 1, 7-(4-Chlorophenyl)-5-methyl-6-(pyridin-2-ylsulfonyl)-2-(trifluoromethyl)-4,7-dihydropyrazolo[1,5-a]pyrimidine]	–	–	pIC50: 6.71
CC1=C(C(=O)N(C)S(=O)(=O)C(C)C)C(c2ccc(Cl)c(Cl)c2)n2nc(C(F)(F)F)cc2N1 (racemic) [Example 87, 7-(3,4-Dichlorophenyl)-N-(isopropylsulfonyl)-N,5-dimethyl-2-(trifluoromethyl)-4,7-dihydropyrazolo[1,5-a]pyrimidine-6-carboxamide]	–	–	pIC50: 6.59
CC1=C(S(=O)(=O)c2ccc(Cl)cc2)C(c2ccc(F)cc2)n2nc(C(F)(F)F)cc2N1 (single isomer, unassigned) [Example 43 Isomer 2, 6-(4-Chlorophenylsulfonyl)-7-(4-fluorophenyl)-5-methyl-2-(trifluoromethyl)-4,7-dihydropyrazolo[1,5-a]pyrimidine]	87.3%	–	–
CC1=C(S(=O)(=O)c2ccc(Cl)cc2)C(c2ccccc2)n2nc(C(F)(F)F)cc2N1 (single isomer, unassigned) [Example 35 Isomer 2, 6-(4-Chlorophenylsulfonyl)-5-methyl-7-phenyl-2-(trifluoromethyl)-4,7-dihydropyrazolo[1,5-a]pyrimidine]	–	–	pIC50: 6.60
CCCCS(=O)(=O)C1=C(C)Nc2cc(C(F)(F)F)nn2C1c1ccc(Cl)cc1 (single isomer, unassigned) [Example 30 Isomer 1, 6-(Butylsulfonyl)-7-(4-chlorophenyl)-5-methyl-2-(trifluoromethyl)-4,7-dihydropyrazolo[1,5-a]pyrimidine]	–	–	pIC50: 6.68
CC1=C(S(=O)(=O)c2ccccc2)C(c2ccc(Cl)c(F)c2)n2nc(C(F)(F)F)cc2N1 (single isomer, unassigned) [Example 33 Isomer 1, 7-(4-Chloro-3-fluorophenyl)-5-methyl-6-(phenylsulfonyl)-2-(trifluoromethyl)-4,7-dihydropyrazolo[1,5-a]pyrimidine]	–	75.5%	–

Continued, in another order:

Kv1.5% inhibition	inhibition at 0.3 µM	Compound	further results
–	91%	CC1=C(C(=O)N(C)S(=O)(=O)c2c(C)noc2C)C(c2ccc(Cl)c(Cl)c2)n2nc(C(F)(F)F)cc2N1 (single isomer, unassigned) [Example 95 Isomer 1, 7-(3,4-Dichlorophenyl)-N-(3,5-dimethylisoxazol-4-ylsulfonyl)-N,5-dimethyl-2-(trifluoromethyl)-4,7-dihydropyrazolo[1,5-a]pyrimidine-6-carboxamide]	–
17.2%	–	CC1=C(S(=O)(=O)NCc2ccccc2)C(c2ccc(Cl)cc2)n2nc(C)cc2N1 (single isomer, unassigned) [Example 55 Isomer 2, N-Benzyl-7-(4-chlorophenyl)-2,5-dimethyl-4,7-dihydropyrazolo[1,5-a]pyrimidine-6-sulfonamide]	–
–	76.2%	CCN(CC)S(=O)(=O)C1=C(C)Nc2cc(C(F)(F)F)nn2C1c1ccc(Cl)c(Cl)c1 (single isomer, unassigned) [Example 64 Isomer 1, 7-(3,4-Dichlorophenyl)-N,N-diethyl-5-methyl-2-(trifluoromethyl)-4,7-dihydropyrazolo[1,5-a]pyrimidine-6-sulfonamide]	–
–	27.7%	CC1=C(S(=O)(=O)NCc2ccccc2)C(c2ccc(Cl)cc2)n2nc(C(F)(F)F)cc2N1 (racemic) [Example 54, N-Benzyl-7-(4-chlorophenyl)-5-methyl-2-(trifluoromethyl)-4,7-dihydropyrazolo[1,5-a]pyrimidine-6-sulfonamide]	–
–	40%	CC1=C(C(=O)N(C)S(=O)(=O)c2ccc(Cl)cc2)C(c2ccc(Cl)c(Cl)c2)n2nc(C(F)(F)F)cc2N1 (racemic) [Example 89, N-(4-Chlorophenylsulfonyl)-7-(3,4-dichlorophenyl)-N,5-dimethyl-2-(trifluoromethyl)-4,7-dihydropyrazolo[1,5-a]pyrimidine-6-carboxamide]	–
–	69.2%	COc1ccc(S(=O)(=O)C2=C(C)Nc3cc(C(F)(F)F)nn3C2c2ccc(Cl)cc2)cc1OC (single isomer, unassigned) [Example 51 Isomer 1, 7-(4-Chlorophenyl)-6-(3,4-dimethoxyphenylsulfonyl)-5-methyl-2-(trifluoromethyl)-4,7-dihydropyrazolo[1,5-a]pyrimidine]	–
40%	–	CC1=C(S(=O)(=O)N2CCCC2)C(c2ccc(Cl)c(Cl)c2)n2nc(C)c(Cl)c2N1 (single isomer, unassigned) [Example 69 Isomer 2, 3-Chloro-7-(3,4-dichlorophenyl)-2,5-dimethyl-6-(pyrrolidin-1-ylsulfonyl)-4,7-dihydropyrazolo[1,5-a]pyrimidine]	–
71%	–	CC1=C(C(=O)N(C)S(=O)(=O)c2c(C)noc2C)C(c2ccc(Cl)c(Cl)c2)n2nc(C(F)(F)F)cc2N1 (single isomer, unassigned) [Example 95 Isomer 2, 7-(3,4-Dichlorophenyl)-N-(3,5-dimethylisoxazol-4-ylsulfonyl)-N,5-dimethyl-2-(trifluoromethyl)-4,7-dihydropyrazolo[1,5-a]pyrimidine-6-carboxamide]	–
86.4%	–	CC1=C(S(=O)(=O)N2CCCC2)C(c2ccc(Cl)c(Cl)c2)n2nc(C(F)(F)F)cc2N1 (single isomer, unassigned) [Example 59 Isomer 2, 7-(3,4-Dichlorophenyl)-5-methyl-6-(pyrrolidin-1-ylsulfonyl)-2-(trifluoromethyl)-4,7-dihydropyrazolo[1,5-a]pyrimidine]	–
90.5%	–	CCN(CC)S(=O)(=O)C1=C(C)Nc2cc(C)nn2C1c1ccc(Cl)c(Cl)c1 (single isomer, unassigned) [Example 61 Isomer 1, 7-(3,4-Dichlorophenyl)-N,N-diethyl-2,5-dimethyl-4,7-dihydropyrazolo[1,5-a]pyrimidine-6-sulfonamide]	–
25%	–	CC1=C(C(=O)N(C)S(=O)(=O)c2ccccc2)C(c2ccc(Cl)c(Cl)c2)n2nc(C)cc2N1 (single isomer, unassigned) [Example 79 Isomer 1, 7-(3,4-Dichlorophenyl)-N,2,5-trimethyl-N-(phenylsulfonyl)-4,7-dihydropyrazolo[1,5-a]pyrimidine-6-carboxamide]	–
